Test results: patent US10548911B2, “Small molecule anti-scarring agents” (UNIVERSITY OF ROCHESTER, priority 2014, dated 2020)
Entries after “also recorded” stand apart in the source; their conditions may differ.

How the values were obtained:
[1] = system: TGFβ-induced luciferase activity; experiment: Spectrum collection small molecule screen with TGFβ-dependent SBE-luciferase HEK293FT reporter cell line; format: cell-based, human; conditions: HEK293FT-luc reporter line
From the text: The minimal thymidine kinase promoter was amplified by PCR with the following forward and reverse primers, of which the forward primer contained four tandem Smad binding elements (SBE):
Restriction sites in the primers are underlined. The resultant PCR product was TOPO cloned (Invitrogen) and the correct insert was verified by DNA sequencing. The construct was digested with SacI-HindIII and the SBEx4-TK insert was purified and ligated with the pGL4.15 vector (Promega). Clones were verified by restriction digest and then tested for TGFβ responsiveness in transient transfections of 293FT cells. […] Clones were selected by treatment with 200 μg/ml hygromycin. 20 clones were selected and screened for TGFβ-induced luciferase activity. One clone that was robustly responsive was subsequently used in the small molecule screen.
Excessive scarring results from the formation of too many myofibroblasts and the production of too much extracellular matrix material such as collagen. Since TGFβ drives the formation of myofibroblasts in part through activating the Smad pathway, a reporter construct was designed to serve as a measure of TGFβ-induced Smad activity (FIG. 1A). Four tandem Smad binding elements (SBE) were inserted upstream of the minimal thymidine kinase promoter. The SBEx4-TK promoter was inserted into the pGL4.15 vector which contains a destabilized firefly luciferase gene and the hygromycin resistance gene. The pSBEx4-TK-luc-Hygro plasmid was then introduced into HEK293FT cells by lipofection. Stable clones were generated and screened for TGFβ induced luciferase activity. One clone was selected that consistently gave a 15 to 20-fold induction of luciferase activity when cells were treated with TGFβ for 24 hours (FIG. 1B).
To find compounds that inhibit TGFβ activity and thus may be novel anti-scarring compounds, the Spectrum collection of 2,300 small molecules was screened with the cell line. […] Salinomycin, an antibiotic produced from Streptomyces albus is used as coccidiostat agent in animal feed (Knirschova et al., “Multiple regulatory genes in the salinomycin biosynthetic gene cluster of Streptomyces albus CCM 4719,” Folia Microbiologica 52:359-365 (2007), which is hereby incorporated by reference in its entirety). […] Thus, further investigation was made to assess the use of salinomycin as an anti-scarring agent.

[2] = system: TGFβ-induced SBE-luciferase activity; experiment: Secondary dual luciferase screen (SBE-luciferase normalized to constitutive Renilla luciferase); format: cell-based, human; conditions: secondary dual luciferase screen, several doses (low micromolar)
Method: FIG. 1A is a diagram of Smad-dependent reporter construct. Four tandem Smad binding elements (SBE) were inserted upstream of the minimal Thymidine Kinase (TK) promoter. Downstream of the promoter is a destabilized version of the firefly luciferase gene (luc2P) present in the pLuc2P-Hygro plasmid which also harbors the hygromycin resistance gene. The plasmid was introduced into HEK293FT cell line and individual colonies were selected with hygromycin (200 ug/ml) to develop a Smad/TGFβ dependent-luciferase reporter cell line. FIG. 1B is a graph illustrating the response of the reporter cell line to 1 ng/ml treatment of TGFβ for 20 hours, which results in an approximately 20-fold increase of luciferase activity.
They are: Benzbromarone (“BZB”), Bithionate sodium (“BTS”), Piplartine (piperlongumine) (“PPT”), Amsacrine (“ASC”), and Alexidine (“AXD”). A secondary luciferase screening assay was performed to determine specificity and dose responsiveness of these compounds in comparison to salinomycin (“SNC”). The secondary screen utilizes dual luciferase technology that includes the above mentioned SBE-luciferase in addition to a Renilla luciferase that is under control of the constitutive SV40 promoter. Therefore the SBE-luciferase activity can be normalized to the Renilla luciferase activity to control for toxicity and non-specific effects. The secondary screen can thus be used to remove small molecules that display overt toxicity and/or non-specific effects on the primary assay.

[3] = system: TGFβ-dependent myofibroblast formation in primary human fibroblasts; experiment: Myofibroblast formation assay in primary human fibroblasts (morphology, Western blot) for Spectrum hits; format: cell-based; conditions: for α-SMA and calponin expression in human fibroblasts: FIG. 14 lanes: PPT 1, 5 uM, AXD 0.1, 1 uM, SNC 100 nM, 1 uM; for α-SMA and calponin expression in human fibroblasts / TGFβ-dependent αSMA and calponin (marker) expression / myofibroblast formation / phenotype: BTS, ASC; for TGFβ-dependent αSMA and calponin (marker) expression: higher dose: PPT 5 μM; for TGFβ-dependent αSMA and calponin (marker) expression / myofibroblast formation / phenotype: AXD 1 μM; for myofibroblast formation / phenotype: lowest effective dose from secondary screen: PPT 5 μM, SNC 0.1 μM, TGFβ 1 ng/ml, 72 hours
Method: Using the lowest effective dose from the secondary screening assay, PPT (5 μM), ASC (1 μM), BTS (1 μM), and AXD (1 μM) were compared to 0.1 μM SNC using primary human fibroblasts (FIG. 13). The myofibroblast formation assay consists of the following protocol: fibroblasts are treated with the aforementioned small molecules and treated with TGFβ (1 ng/ml) for 72 hours. The cells were then either photographed for morphological analysis or collected, lysed and analyzed by Western blot for the myofibroblast markers alpha-smooth muscle actin (αSMA) and calponin. β-tubulin was used as a loading control.
PPT was used at 1 and 5 μM (lanes 3 and 4), BTS was used at 0.1 and 1 μM (lanes 5 and 6), ASC was used at 0.1 and 1 μM (lanes 7 and 8), SNC was used at 100 nM and 1 μM (lanes 9 and 10), and AXD was used at 0.1 and 1 μM (lanes 11 and 12).

[4] = system: TGFβ-induced myofibroblast formation in human fibroblasts; experiment: Western blot of myofibroblast markers αSMA and calponin in TGFβ-treated human (TED orbital) fibroblasts; format: cell-based; conditions: 250 nM, TGFβ, 72 hours
Method: TED fibroblasts were treated with TGFβ (1 ng/ml) in the presence or absence of 10-250 nM salinomycin for 72 hours to allow formation of myofibroblasts. After 72 hours, cells were harvested and analyzed by Western blot. As expected, the fibroblasts robustly responded to TGFβ, expressing high levels of αSMA and calponin (FIG. 2A). […] At 50 nM salinomycin, expression of αSMA was reduced by 4-fold over TGFβ treatment alone. Furthermore, at 250 nM salinomycin, αSMA expression was reduced by approximately 16-fold, to levels at or below untreated fibroblasts. […] Another key role of myofibroblasts in scar formation is the production of collagen. Whether salinomycin could block myofibroblast collagen production was assessed. Cells were treated with TGFβ and salinomycin as above and after 72 hours, culture medium was collected and analyzed for collagen levels using a specific collagen I antibody and slot blot analysis.
To test these four compounds, human fibroblasts were treated with TGFβ in the absence or presence of 250 nM of either salinomycin, narasin, clioquinol or monensin for 72 hours. After treatment, cell lysates were harvested and analyzed for the presence of the myofibroblast markers, αSMA and calponin (FIG. 3B).

human fibroblasts = experiment: BrdU incorporation assay (cell proliferation); format: cell-based
Method: Human fibroblasts were seeded on a 96-well plate at a density of 1×10^5 cells/well. Cells were treated in triplicate. Cell proliferation was determined using the bromodeoxyuridine (BrdU) assay following manufacturer's instructions. Briefly, cells were treated with a BrdU label at a 1:2000 dilution for 24 h after the initial 72 h treatment with TGFβ+/−drugs. BrdU incorporation was measured using the BrdU Cell Proliferation Assay kit (Calbiochem, San Diego, Calif.) at 450-540 nm using a Varioskan microplate reader.
While salinomycin and other polyether ionophores blocked myofibroblast formation, it was next assessed whether these effects were a result of toxicity and/or due to a block of cell proliferation. Though the treatment doses are relatively low (efficacy in 100-250 nM range), a loss of cell viability could still be a possibility. To test this, human fibroblasts were treated with vehicle (DMSO), 50-250 nM salinomycin alone, TGFβ or TGFβ plus 250 nM salinomycin. As a positive control, fibroblasts were treated with the cytotoxic drug, puromycin. Treated cells were cultured in the presence of alamar blue reagent, which measures mitochondrial oxidation-reduction (REDOX) potential and serves as a quantitative viability sensor. After 72 hours of culture, alamar blue fluorescence was measured to assay cell viability (FIG. 4A). […] It was also tested whether salinomycin affects basal fibroblast proliferation. To address this, cells were treated with vehicle or 250 nm of either salinomycin or narasin for 24 hours in the presence of bromodeoxyuridine (BrdU) to measure cell proliferation ([…], first three bars). […] BrdU was also added to cells treated with TGFβ in the presence or absence of 250 nM salinomycin or narasin (FIG. 4B, last three bars). As expected, TGFβ induced human fibroblast proliferation. Remarkably, both salinomycin and narasin were able to beneficially block TGFβ induced proliferation by 4 to 5 fold, without affecting basal proliferation levels.

[5] = system: primary human orbital fibroblasts; experiment: TGFβ-induced myofibroblast formation, αSMA Western blot, primary human orbital fibroblasts; conditions: for overt toxicity / TGFβ-induced myofibroblast differentiation (αSMA expression): 2-500 μM
Method: Total protein was isolated from 0.5-2×10^6 cells and lysed in 60 mM Tris, pH 6.8, 2% SDS containing 1× protease inhibitor cocktail (Sigma, St. Louis, Mo.). The lysates were passed through a 26 gauge needle 5-6 times to shear genomic DNA. Protein concentrations were determined using the detergent compatible protein assay (BioRad). Total protein (1-10 ug per lane) was subjected to SDS-PAGE. Protein gels were transferred to PVDF membrane (Millipore) and probed with antibodies as specified. Western blot band intensities were quantified using ImageLab software (BioRad). Protein expression was normalized to β-tubulin levels.
Primary human orbital fibroblasts, primary human lung fibroblasts, and primary mouse lung fibroblasts were treated with TGFβ and HCPT (50 nM, 500 nM, and 5000 nM) or SNC (500 nM) or AXD (0.5 μM, 5 μM, and 50 μM) to assess the ability of HCPT to inhibit myofibroblast formation. […] Western blots were performed using cell lysates from the fibroblasts exposed to TGFβ to assess TGFβ-dependent αSMA expression.
Primary human orbital fibroblasts were treated with TGFβ and either 6-formylindolo(3,2-b)carbazole (“FICZ”, 1 μM), Omeprazole (“Ome”, 2 μM, 10 μM, 50 μM, 100 μM, 250 μM, 500 μM), or Flutamide (“Flut”, 2 μM, 10 μM, 50 μM, 100 μM, 250 μM, 500 μM) to assess their ability to inhibit myofibroblast formation. […] Western blots were performed using cell lysates from the fibroblasts exposed to TGFβ to assess TGFβ-dependent αSMA expression. Densitometry analyses of the Western blots were also performed.

For `COc1cc(/C=C/C(=O)N2CCC=CC2=O)cc(OC)c1OC` [PPT, piplartine (piperlongumine)], the “inhibition of TGFβ-induced luciferase activity, initial screen” value (“inhibition … initial screen” below) [1] was “inhibit TGFβ-induced luciferase”, the “inhibition of luciferase expression, dose responsiveness” value (“inhibition of luciferase expression” for short) [2] was “substantially inhibited luciferase expression; also recorded: strong luciferase inhibition” and the “α-SMA and calponin expression in human fibroblasts” value (from here on “α-SMA and calponin expression”) [3] was “inhibit β-dependent α-SMA and calponin expression”. For the same molecule, the “TGFβ-dependent αSMA and calponin (marker) expression” value (from here on “TGFβ-dependent αSMA and calponin”) [3] was “inhibited marker expression” and the “myofibroblast formation / phenotype” value [3] was “inhibit myofibroblast phenotype; also recorded: inhibits myofibroblast formation”.
With `CC[C@@H](C(=O)O)[C@@H]1O[C@@H]([C@@H](C)[C@H](O)[C@H](C)C(=O)[C@H](CC)[C@H]2O[C@]3(C=C[C@@H](O)[C@]4(CC[C@@](C)([C@H]5CC[C@](O)(CC)[C@H](C)O5)O4)O3)[C@H](C)C[C@@H]2C)[C@@H](C)C[C@@H]1C` [narasin] the “expression of αSMA and calponin” value [4] was “inhibited expression of αSMA and calponin”, the “TGFβ induced proliferation (BrdU incorporation)” value (human fibroblasts; 250 nM plus TGFβ) was “significantly blocked TGFβ induced proliferation” and the “basal fibroblast proliferation (BrdU incorporation)” value (human fibroblasts; 250 nM, without TGFβ) was “did not affect basal fibroblast proliferation; also recorded: Neither salinomycin nor narasin blocked basal fibroblast proliferation”.
With `COc1cc(NS(C)(=O)=O)ccc1Nc1c2ccccc2nc2ccccc12` [ASC, amsacrine] the “inhibition … initial screen” value [1] was “inhibit TGFβ-induced luciferase”, the “inhibition of luciferase expression” value [2] was “substantially inhibited luciferase expression; also recorded: strong luciferase inhibition” and the “α-SMA and calponin expression” value [3] was “inhibit β-dependent α-SMA and calponin expression”. The “TGFβ-dependent αSMA and calponin” value [3] was “inhibited marker expression” and the “myofibroblast formation / phenotype” value [3] was “inhibit myofibroblast phenotype; also recorded: inhibits myofibroblast formation”.
With `CCc1oc2ccccc2c1C(=O)c1cc(Br)c(O)c(Br)c1` [BZB, benzbromarone] the “inhibition … initial screen” value [1] was “inhibit TGFβ-induced luciferase” and the “inhibition of luciferase expression” value [2] was “All but BZB substantially inhibited luciferase expression”.
With `Oc1c(Cl)cc(Cl)cc1Sc1cc(Cl)cc(Cl)c1O` [BTS, bithionate sodium] the “inhibition … initial screen” value [1] was “inhibit TGFβ-induced luciferase”, the “inhibition of luciferase expression” value [2] was “substantially inhibited luciferase expression; also recorded: strong luciferase inhibition” and the “α-SMA and calponin expression” value [3] was “inhibit β-dependent α-SMA and calponin expression”. For the same molecule, the “TGFβ-dependent αSMA and calponin” value [3] was “inhibited marker expression” and the “myofibroblast formation / phenotype” value [3] was “inhibit myofibroblast phenotype; also recorded: inhibits myofibroblast formation”.
For `CCCCC(CC)CNC(=N)NC(=N)NCCCCCCNC(=N)NC(=N)NCC(CC)CCCC` (stereo not shown) [AXD, alexidine], the “inhibition … initial screen” value [1] was “inhibit TGFβ-induced luciferase”, the “inhibition of luciferase expression” value [2] was “substantially inhibited luciferase expression; also recorded: strong luciferase inhibition” and the “α-SMA and calponin expression” value [3] was “inhibit β-dependent α-SMA and calponin expression”. For the same molecule, the “expression of Thy1” value ([3]; high dose, 1 μM) was “did inhibit Thy1”, the “TGFβ-dependent αSMA and calponin” value [3] was “inhibited marker expression” and the “myofibroblast formation / phenotype” value [3] was “inhibit myofibroblast phenotype; also recorded: inhibits myofibroblast formation”.
`CC(C)C(=O)Nc1ccc([N+](=O)[O-])c(C(F)(F)F)c1` [flutamide, Flutamide] was tested, and the overt toxicity [5] was “No overt toxicity was observed” and the “TGFβ-induced myofibroblast differentiation (αSMA expression)” value [5] was “inhibited TGFβ-induced myofibroblast differentiation; also recorded: inhibits human orbital fibroblast to myofibroblast differentiation”.
With `COc1ccc2[nH]c([S+]([O-])Cc3ncc(C)c(OC)c3C)nc2c1` (racemic) [omeprazole] the αSMA expression ([5]; 100 μM) was “sub-baseline levels”, the overt toxicity [5] was “No overt toxicity was observed” and the “TGFβ-induced myofibroblast differentiation (αSMA expression)” value [5] was “inhibited TGFβ-induced myofibroblast differentiation; also recorded: inhibits human orbital fibroblast to myofibroblast differentiation”.
